Results from patent publication US6358736B1, “Method for increasing the antigen presenting ability of leukemia cells” (The United States of America as represented by the …, priority 1995, dated 2002).

Experiments:
[1] = system: B cell subpopulation within the PBMC; experiment: FACS analysis of B cell subpopulation in unfractionated PBMC; assay type: cell-based, human; conditions: A23187 750 mg/ml, 40 hours
Experimental: (§1) PBMC were prepared by leukapheresis and Ficoll-Hypaque and placed in culture. Since the cells were never elutriated and no adherence step was performed, these cultures included large numbers of T, B, and NK lymphocytes as well as monocytes. The medium was our standard RPMI 10% human AB serum with antibiotics including amphotericin B. Cells were either untreated or treated for 40 hours with calcium ionophore A23187 750 mg/ml. Cells were then harvested and analyzed by FACS. Cells were stained with FITC conjugated anti-CD3, anti-CD40, anti-CD57, anti-CD14, or the combination; in addition cells were stained with PE conjugated control antibodies, anti-B7.1, anti-B7.2, etc. In this way the effect of calcium ionophore treatment on each parameter could be clearly delineated.

[2] = system: WEHI-3; experiment: Costimulatory molecule expression on mouse myeloid leukemia line; assay type: cell-based; conditions: following calcium mobilization
Excerpt: Myeloid leukemia cell lines display marked upregulation of molecules linked to antigen-presentation and acquire increased T cell sensitizing capacity following calcium mobilization with either calcium ionophore or thapsigargin.

[3] = system: NK subpopulation within the PBMC; experiment: FACS analysis of NK subpopulation in unfractionated PBMC; assay type: cell-based, human; conditions: A23187 750 mg/ml, 40 hours
Experimental: as §1

[4] = system: bone marrow-derived CD34pos cells; experiment: FACS and morphologic analysis of cultured bone marrow-derived CD34pos cells; assay type: cell-based, human
Experimental: Bone marrow-derived highly purified CD34^pos cells were cultured for six days in medium containing 20% fetal calf serum, rhSCF, rhGM-CSF, and rhTNF-alpha. […] Cells were centrifuged and replated in 24 well plates in fresh medium containing rhGM-CSF, and rhTNF-alpha but not rhSCF. In addition, individual wells were treated with varied doses of ionophore A23187. Wells were harvested 1, 2, and 6 days subsequently, subjected to FACS analysis or studied morphologically for DC characteristics utilizing polylysine-coated glass slides and Nomarski optics.

[5] = system: monocyte subpopulation within PBMC; experiment: FACS analysis of monocyte subpopulation in unfractionated PBMC; assay type: cell-based, human; conditions: A23187 750 ng/ml, 40 hours
Experimental: as §1, with “cultures deliberately” for “cultures”, “ng/ml.” for “mg/ml.”, “anti-CD 14,” for “anti-CD14,”

[6] = system: pooled monocyte plus dendritic cell elutriation fractions; experiment: FACS analysis of pooled 150-190 elutriation (APC) fractions after calcium ionophore activation; assay type: cell-based, human; conditions: 500 ng A23187
Experimental: Two patients were hooked up to Fenwal™ CS-3000 leukapheresis apparatus' running a Procedure 8 modification software program. Patient #1 had been previously diagnosed with colon cancer, and Patient #2 was a normal control. The Fenwal™ apparatus was configured to isolate a sample of neutrophil-depleted, platelet-rich cells from each patients' peripheral blood. After 3-5 hours of leukaphereis, the isolated blood cells from each patient were quickly spun down in a centrifuge and then rinsed in citrate buffer to remove any excess plasma, tumor related proteins or calcium.
Following the citrate buffer rinse, the cells were resuspended in EDTA-free, Ca^++/Mg^++ HBSS. The isolated cells from each patient were then subject to elutriation on a Beckman™ JE-6B elutriation rotor. Once reaching a speed of 3000 rpm, 5×10^9 cells were elutriated by pressurized air at buffer flow rates of 120, 140, 150, 160, 170, 180, 190 and 200 cc/minute.
Each fraction from both patients were immediately placed on ice to prevent cell adherence to the plastic walls of the collection vials. We coulter counted each of the fractions and discarded the r/o fraction because it had greater than a 10% contamination of neutrophils. The 150, 160, 170, 180 and 190 cc/min fractions from Patient #1 and Patient #2 were pooled then subject to calcium ionophore. The pooled fractions from each patient were divided in half, with one half being activated by 500 ng of calcium ionophore A23187 (Sigma), and one half being inactivated. From our previous experiments, we expected that the calcium ionophore treated cells would have a much higher number of dendritic cells due to conversion of monocytes to DCs. Prior to FACS analysis, we activated Patient #1's pooled fractions by incubating both the untreated and calcium ionophore treated cells for 40 hours in the presence of an autologous tumor cell lysate (the patients own tumor cells). Similarly, we activated Patient #2's pooled fractions by incubating both the untreated and calcium ionophore treated cells in the presence of keyhole limpet hemocyanin (KLH) for 40 hours.
The vast majority of cells stained in the pooled fractions were expected to be CD14+(ie: monocytes). The horizontal (X) axis of the FACS plot illustrated staining for DR, B7.1 or B72 surface antigens.

[7] = system: HL-60 cells cocultured with allogeneic naive T cells; experiment: T cell allosensitization by irradiated treated HL-60 cells (3H-TdR); assay type: cell-based, human; conditions: A23187 180 ng/ml with or without rhGM-CSF 20 ng/ml and IFN-gamma 1000 u/ml, three days
Experimental: Fresh allogeneic naive (CD45R0 negative) T cells were prepared and cocultured with graded numbers of irradiated (3000R) HL-60 cells treated under the above-described conditions. Four days later the cultures were pulsed with ^3H-TdR (tritiated thymidine) and harvested 18 hours later.
Cells were harvested after three days, irradiated (3000R), then FACS analyzed or cocultured in graded numbers with freshly prepared naive (CD45RO negative) T lymphocytes. Allosensitization was assessed by pulsing at day 4 with ^3H-TdR and harvesting 18 hours later.

[8] = system: human peripheral blood monocytes; experiment: FACS analysis of cell surface markers on cultured peripheral blood monocytes; assay type: cell-based
[9] = system: monocytes / dendritic cells cocultured with allogeneic T cells; experiment: Allogeneic T cell sensitization (3H-thymidine) by treated monocytes/dendritic cells; conditions: A23187 750 ng/ml, 40 hours
Experimental: Uncultured monocytes and DC were each purified from elutriation fractions using Miltenyi microsuperparamagnetic beads; monocytes were positively selected based on CD14 expression, while dendritic cells were negatively selected based on low CD14 expression, then positively selected based on CD33 (myeloid marker) expression. Each isolated fraction was cultured for 40 hours either in medium alone or in ionophore A23187 750 ng/ml, then harvested and either FACS analyzed or microcultured with freshly prepared allogeneic T lymphocytes. Graded numbers of the cultured monocytes or dendritic cells were added to fixed numbers of T cells to compare their antigen-presenting ability. Four days later the microcultures were pulsed with ^3H-dTr and harvested 18 hours later.
Monocyte rich elutriation fractions were cultured for 40 hours with either no additives, ionophore A23187 750 ng/ml, or rhIlL-4 (1000 u/ml) and rhGM-CSF (20 ng/ml), a cytokine combination which leads monocytes to differentiate completely to dendritic cells during seven days of culture (Pickl et al, J. Immunol. 157:3850, 1996). MOMC were then harvested, irradiated (1000 rads) and cocultured in triplicate at various MOMC: T cell ratios with 10^5 allogeneic freshly prepared CD4^+ T cells in 0.2 ml RPMI with 5% AB plasma in 96 well tissue flat bottom culture plates. No cytokines were added during coculture. After 4 days [^3H]thymidine (1 μCi/well) was added and 18 hours later the wells were harvested and counted.
Monocytes in monocyte rich elutriation fractions (90-93% monocytes) were further purified using Miltenyi microsuperparagnetic beads coupled to anti-CD14. After incubation with these beads cells were applied to a magnetized column to positively select the strongly CD14^pos cells, and were enriched to >98% purity. Unpurified or purified monocytes were cultured for 40 hours in our standard culture medium with 750 ng/ml ionophore A23187, then harvested. The recovered cells were either immediately FACS analyzed or added in graded numbers to freshly prepared allogeneic T cells to assay their antigen presenting function. Four days later, the T cell cultures were pulsed with ^3H-TdR (tritiated thymidine) and harvested 18 hours later.

[10] = colon cancer patient, 40 hours with autologous tumor cell lysate
[11] = normal donor, 40 hours with KLH
[12] = as E78, vs expression prior to culture
[13] = calcium-free RPMI and dialyzed serum
[14] = within 18 hours of treatment initiation

Structure (SMILES): CNc1ccc2oc(C[C@H]3O[C@@]4(CC[C@H]3C)O[C@H]([C@H](C)C(=O)c3ccc[nH]3)[C@H](C)C[C@H]4C)nc2c1C(=O)O [A23187]
- B7.1 and B7.2 expression [1]: a subpopulation of B cells developed marked B71 and B72 expression
- costimulatory molecule expression [2]: markedly increased costimulatory molecule expression
- upregulation of surface markers [3]: negligible upregulation of surface markers
- increase in purity of cells with activated myeloid dendritic cell phenotype at final harvest [4]: approximately six
- CD14 expression ([4]; 375-750 ng/ml, within 20 hours): marked CD14 downregulation
- cells with marked upregulation of B7.1, B7.2, ICAM-1, CD83, CD40 and CD1a ([4]; 375-750 ng/ml, within 20 hours): > 85 % of cells
- increase in yield of cells with activated myeloid dendritic cell phenotype vs wells without ionophore ([4]; absolute numbers of cells recovered): approximately three
- optimal concentration for dendritic cell immunophenotype ([4]; within 20 hours of treatment): 375 to 750 ng/mL
- morphology ([4]; within 40 hours of treatment): virtually all cells manifested dendritiform morphology
- CD14 expression [5]: downregulation of CD14 to a background level
- increase of B7.1 expression [5]: seven
- increase of B7.2 expression [5]: 10 fold
- increase of CD40 expression [5]: 7 fold
- increase of CD83 expression [5]: 11 fold
- increase of HLA-DR expression [5]: 9 fold
- increase of ICAM-1 expression [5]: 4.5 fold
- B7.1 expression [6, 10]: substantial but less uniform upregulation of B7.1
- HLA-DR and B7.2 expression [6, 10]: marked upregulation of HLA-DR and B7.2
- conversion of cells to cocktail negative (dendritic) phenotype [6, 10]: vast majority of cells were now converted to cocktail negative
- HLA-DR, B7.1 and B7.2 expression [6, 11]: markedly upregulated for HLA-DR, B7.1 and B7.2
- conversion of cells to cocktail (CD3, CD14, CD20, CD56) negative (dendritic) phenotype [6, 11]: vast majority of these cells was now cocktail negative
- allostimulation of naive T cells [7]: significantly allostimulatory
- optimal concentration for DC differentiation of monocytes ([8]; 10% FCS): 180 to 375 ng/mL
- CD14 expression downregulated ([8]; 20 hours, 10% AB serum, amphotericin B omitted, low endotoxin, A23187 750 ng/ml or cytokines (rhIL4 1000 u/ml; +rhGM-CSF 100 ng/ml; +rhTNF-alpha 100 u/ml)): 90%
- surface marker expression in purified monocyte and DC cultures ([8]; A23187 750 ng/ml, 40 hours): upregulation of B7.1, B7.2, ICAM-1., HLA-DR, HLA-ABC, CD40, and CD83
- surface marker expression of purified (>98%) CD14pos monocytes vs prepurified fractions ([8]; A23187 750 ng/ml, 40 hours): downregulated CD14, and upregulated B7.1, B7.2, ICAM-1, HLA-DR, HLA-ABC, CD40 and CD83 equivalently
- activation and dendritic cell phenotypic conversion of pooled monocyte plus DC fractions ([8]; added at the beginning of a 24-48 hr culture period): uniform activation and dendritic cell phenotypic conversion
- B7.1 expression increase [8, 12]: 14 fold
- B7.2 expression increase [8, 12]: 7.5 fold
- CD83 expression increase [8, 12]: 8.7 fold
- HLA-ABC expression increase [8, 12]: 3.0 fold
- HLA-DQ expression increase [8, 12]: 3.4 fold
- HLA-DR increase [8, 12]: 2.9 fold
- suppression of ionophore-induced B7.1 upregulation [8, 13]: 100%
- suppression of ionophore-induced CD14 downregulation [8, 13]: 53%
- optimal concentration for DC differentiation of monocytes ([8]; media with 5% AB serum): 375 to 750 ng/mL
- CD40 expression ([8]; more uniform by 40 hours of treatment): Modest upregulation of CD40
- optimal concentration for DC differentiation of monocytes ([8]; serum free media): 45 to 90 ng/mL
- morphology by electron microscopy ([8]; within 20-40 hours of treatment): markedly increased endoplasmic reticulum, lysosomal and Golgi content
- B7.1 (CD80) expression [8, 14]: Variable levels of de novo expression of B7.1 (CD80)
- B7.2 (CD86) expression [8, 14]: marked upregulation of B7.2 (CD86)
- CD83 expression [8, 14]: de novo and essentially uniform expression
- cell surface CD14 expression [8, 14]: marked downregulation of cell surface CD14
- T cell sensitizing capacity of purified monocytes vs prepurified fraction cells [9]: enhanced T cell sensitizing capacity identical on a cell numbers basis
- T cell sensitizing capacity of treated monocytes (allogeneic CD4+ T cells) ([9]; graded numbers): much greater T cell sensitizing capacity
- T cell sensitizing efficiency of purified DC ([9]; vs untreated): only a modest increase
- T cell sensitizing efficiency of purified monocytes ([9]; vs untreated): a more marked enhancement
